Experimental data: ChEMBL document CHEMBL1154094, “Carbonic anhydrase inhibitors. Aromatic/heterocyclic sulfonamides incorporating phenacetyl, pyridylacetyl and thienylacetyl tails act as potent inhibitors of human mitochondrial isoforms VA and VB” (Bioorg Med Chem, 2009)

Assays:
[1] = target: Carbonic anhydrase 5A, mitochondrial (Homo sapiens, UniProt P35218)
[2] = target: Carbonic anhydrase 5B, mitochondrial (Homo sapiens, UniProt Q9Y2D0)
Carbonic anhydrase 5B, mitochondrial, sequence (Q9Y2D0 whole entry): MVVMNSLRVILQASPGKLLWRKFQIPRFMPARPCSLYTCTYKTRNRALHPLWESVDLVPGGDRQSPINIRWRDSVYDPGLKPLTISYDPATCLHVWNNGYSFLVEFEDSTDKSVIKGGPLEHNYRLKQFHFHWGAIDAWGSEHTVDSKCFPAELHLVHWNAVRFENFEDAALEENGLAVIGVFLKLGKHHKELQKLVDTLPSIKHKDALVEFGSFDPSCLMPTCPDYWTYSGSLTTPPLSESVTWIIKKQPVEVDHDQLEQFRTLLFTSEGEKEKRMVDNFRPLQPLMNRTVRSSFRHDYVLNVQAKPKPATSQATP

Carbonic anhydrase 5A, mitochondrial, sequence (P35218 whole entry): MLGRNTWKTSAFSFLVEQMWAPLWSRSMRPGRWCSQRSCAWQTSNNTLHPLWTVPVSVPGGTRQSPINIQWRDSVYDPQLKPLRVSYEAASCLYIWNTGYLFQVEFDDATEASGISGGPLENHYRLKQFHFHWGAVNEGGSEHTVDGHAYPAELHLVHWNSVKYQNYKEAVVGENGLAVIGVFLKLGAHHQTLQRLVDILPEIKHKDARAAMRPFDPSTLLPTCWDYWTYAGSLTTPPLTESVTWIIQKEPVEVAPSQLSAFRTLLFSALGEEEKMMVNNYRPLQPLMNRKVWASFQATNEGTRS

Structure (SMILES) | Ki [1] [nM] | Ki [2] [nM]
NS(=O)(=O)c1ccc(NC(=O)Cc2cccs2)cc1 | 7.2 | 7
NS(=O)(=O)c1ccc(CNC(=O)Cc2cccs2)cc1 | 9.1 | 7.2
NS(=O)(=O)c1ccc(NC(=O)Cc2ccccc2)cc1 | 6.7 | 7.9
NS(=O)(=O)c1ccc(CCNC(=O)Cc2cccs2)cc1 | 10.2 | 8
